Laboratory results reported in patent publication US20220016079A1, “COMBINATION TREATMENT OF HIV INFECTIONS” (priority 2018, published 2022).

Columns and labels:
Format in all cases: cell-based, human
[1] = test system: CD4+ T cell line JLat 10.6; assay: Cellular cytotoxicity (LDH assay and CellTiter Glo assay); settings: even at high concentration (20 μM), 72 h
Protocol: (§1) This experiment examined the cellular cytotoxicity of DEB10-1143 alone and DEB10-1143+ART on the human CD4+ T cell line JLat 10.6. DEB10-1143 was tested as well on human primary CD4+ T lymphocytes. Drug titration and kinetic studies were conducted.
(§2) Method: Cells (100,000 cells/100 μL) were treated in triplicate for 72 h with increasing concentrations of DEB10-1143 (0 to 20 μM) used alone or in combination with ART (20 μM TDF, 10 μM FTC and 1 μM Raltegravir). ART and DEB10-1143 were added simultaneously to cells. Saponin (0.5%) was used as positive control due to its ability to induce cell death.
(§3) Cellular cytotoxicity was analyzed by Lactate dehydrogenase (LDH) assay and CellTiter Glo assay.
(§4) LDH assay: LDH is an oxidoreductase enzyme that catalyses the interconversion of pyruvate and lactate. Cells release LDH into the bloodstream after tissue damage or red blood cell hemolysis. […] In this particular assay, LDH reduces NAD to NADH, which is specifically detected by colorimetric (490 nm) assay.
(§5) CellTiter Glo assay: The CellTiter-Glo® 2.0 Assay determines the number of viable cells in culture by quantifying ATP, which indicates the presence of metabolically active cells. Luminescence readout is directly proportional to the number of viable cells in culture. Data are expressed in luminescence (RLU) in triplicate

[2] = test system: primary CD4+ T-lymphocytes; assay: as above; settings: even at high concentration (20 μM), 72 h
Protocol: as §1, §2, §3, §4, §5

[3] = test system: latent HIV in resting CD4+ T-lymphocytes; assay: HIV reactivation in resting CD4+ T-lymphocytes derived from ART-treated HIV patients (HIV RNA in supernatant, qPCR)
Protocol: The experiments of this example analyzed the ability of DEB10-1143 at reactivating latent HIV in resting CD4+ T-lymphocytes isolated from peripheral blood monocytic cells (PBMCs) derived from HIV patients currently under ART. Drug titration and kinetic studies were conducted. Debio-1143 was tested alone or in combination with ART.
Method: Resting CD4+ T cells were isolated using the EasySep™ Human Resting CD4+ T Cell Isolation Kit, which is designed to isolate resting CD4+ T cells from fresh or previously frozen PBMCs by immunomagnetic negative selection. The EasySep™ procedure involves labeling unwanted cells with antibody complexes and magnetic particles. The magnetically labeled cells are separated from the untouched desired cells by using an EasySep™ magnet and simply pouring or pipetting the desired cells into a new tube. Isolated resting CD4+ T cells (50,000 cells/50 μL) were treated in duplicate for 0, 24, 48 and 72 h with increasing concentrations of DEB10-1143 (0 to 20.5 μM) used alone or in combination with ART (20 μM TDF, 10 μM FTC and 1 μM Raltegravir). Amounts of virions released from cells were quantified at the indicated time points by quantifying HIV RNA levels (HIV RNA copies/mL) in supernatant of cell culture using one-step reverse transcriptase quantitative real-time PCR (ABI custom TaqMan Assays-by-Design) according to the manufacturer's instructions. Primers were 5-[…]-3 and 5-[…]-3, and MGB probe 5-FAM-[…]-Q-3, where FAM is 6-carboxyfluorescein.

[4] = test system: latent HIV-1 in rCD4+ cells co-cultured with CD8+ cells; assay: HIV-1 reactivation in ex vivo co-cultures of rCD4+ and CD8+ cells from an ART-treated HIV patient (HIV RNA in supernatant)
Protocol: The efficacy of IAPa, ICI or IAPa/ICI combinations in reversing HIV-1 latency was tested in HIV-1 infected rCD4+ cells co-cultured for 48 h with CD8+ cells from the same donor.
Method: Blood from one HIV-1-infected patient under ART was collected (500 mL) and CD4+ and CD8+ cells isolated using beads coated with specific antibodies following manufacturer's instruction (MojoSort™ Human Cell Isolation Kits from Biolegend). The CD4+ T cells were re-infected with HIV-1 (JR-CSF) (1 μg of p24), incubated for 3 days to allow establishment of infection, and treated with ART ([…]) for 7 days to ensure presence of enough latent HIV CD4+ cells (rCD4+) in the culture. Upon ART removal, rCD4 were then isolated following manufacturer's instruction (EasySep™ Human Resting CD4+ T Cell Isolation Kit). The isolated rCD4 were mixed with autologous (from the same patient) uninfected CD8+ T cells at a 1:1 ratio (100,000 cells) and incubated in duplicate for 48 h with different IAPa ([…]) or ICI (10 μg/ml) in monotherapy, or the IAPa/ICI combinations. Amounts of virions released from cells were quantified at the indicated time points by quantifying HIV RNA levels (HIV RNA copies/mL) in supernatant of cell culture using one-step reverse transcriptase quantitative real-time PCR (ABI custom TaqMan Assays-by-Design) according to the manufacturer's instructions. Primers were 5-[…]-3 and 5-[…]-3, and MGB probe 5-FAM-[…]-Q-3, where FAM is 6-carboxyfluorescein.

Q: For `CN[C@@H](C)C(=O)N[C@H]1CN(C(=O)CC(C)C)CC[C@H]2CC[C@@H](C(=O)NC(c3ccccc3)c3ccccc3)N2C1=O` [Debio 1143, (5S,8S,10aR)-N-benzhydryl-5-((S)-2-(methylamino)propanamido)-3-(3-methylbutanoyl)-6-oxodecahydropyrrolo[1,2-a][1,5]diazocine-8-carboxamide], which cytotoxicity [1] is on record?
A: The cytotoxicity was “no significant cytotoxicity”.

Q: What about the cytotoxicity [2] of the same molecule?
A: Its cytotoxicity is “no significant cytotoxicity”.

Q: And the “influence of ART on the degree of latency reversal” value ([3]; in combination with ART (20 μM TDF, 10 μM FTC, 1 μM Raltegravir))?
A: Its value is “did not influence”.

Q: And the “time after which reactivation was already maximal” value ([3]; resting CD4+ T cells from two HIV patients under ART)?
A: Its value is ≤ 24 h.

Q: And the “reactivation of latent HIV (HIV RNA copies/mL in supernatant)” value ([3]; resting CD4+ T cells from two HIV patients under ART, 0 to 20.5 μM, 0-72 h)?
A: The value was “possesses the capacity of reactivating latent HIV”.

Q: And the “latency reversal class (HIV RNA copies/ml in supernatant)” value (“latency reversal class” for short) ([4]; IAPa 1 μM monotherapy (0.1% DMSO, no ICI), 48 h (Table 3))?
A: The value was 3 (Subsequent classes were defined accordingly in steps of 500 RNA copies/ml).

Q: What about the “latency reversal class” value ([4]; IAPa 1 μM with Control IgG1, 48 h (Table 3)) of the same molecule?
A: The value was 3 (Subsequent classes were defined accordingly in steps of 500 RNA copies/ml).

Q: What about the “latency reversal class” value ([4]; IAPa 1 μM with Control IgG2, 48 h (Table 3)) of the same molecule?
A: The value was 3 (Subsequent classes were defined accordingly in steps of 500 RNA copies/ml).
